“And” between values parts separate entries of the source, which are not always exact repeats. Identical values can stand only once. Toxic doses and inconclusive results are not listed.
System: BDF1 mice, P388 leukemia ip, median survival T/C
Test: NCI In Vivo Anticancer Drug Screen. Data for tumor model P388 Leukemia (intraperitoneal) in B6D2F1 (BDF1) mice
Details: endpoint: median survival time, higher = longer survival
Summary of the method: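 T/C = treated-group survival ÷ vehicle-control survival; tumour transplanted into mice before dosing.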

[1] = dose: 15.0 mg/kg/injection, schedule: Q01DX009 (ip), vehicle: saline with Tween-80
[2] = dose: 50.0 mg/kg/injection, schedule: Q01DX009 (ip), vehicle: saline with Tween-80
[3] = dose: 50.0 mg/kg/injection, schedule: Q04DX003 (ip), vehicle: saline
[4] = dose: 100.0 mg/kg/injection, schedule: Q04DX003 (ip), vehicle: saline
[5] = dose: 200.0 mg/kg/injection, schedule: Q04DX003 (ip), vehicle: saline
[6] = dose: 100.0 mg/kg/injection, schedule: Q04DX003 (ip), vehicle: saline with Tween-80
[7] = dose: 200.0 mg/kg/injection, schedule: Q04DX003 (ip), vehicle: saline with Tween-80
[8] = dose: 400.0 mg/kg/injection, schedule: Q04DX003 (ip), vehicle: saline with Tween-80
[9] = dose: 100.0 mg/kg/injection, schedule: Q01DX009 (ip), vehicle: saline with Tween-80
[10] = dose: 200.0 mg/kg/injection, schedule: Q01DX009 (ip), vehicle: saline with Tween-80
[11] = dose: 25.0 mg/kg/injection, schedule: Q01DX009 (ip), vehicle: saline with Tween-80

Structure (SMILES): O=C1NC(=O)C([N+](=O)[O-])=C(O)C1=O
- T/C (dose: 1.0 mg/kg/injection, schedule: Q01DX009 (ip), vehicle: saline with Tween-80): 110 % of control
- T/C (dose: 4.0 mg/kg/injection, schedule: Q01DX009 (ip), vehicle: saline with Tween-80): 105 % of control
- T/C (dose: 8.0 mg/kg/injection, schedule: Q01DX009 (ip), vehicle: saline with Tween-80): 100 % of control
- T/C (dose: 9.0 mg/kg/injection, schedule: Q01DX009 (ip), vehicle: saline with Tween-80): 150 % of control
- T/C [1]: 95 % of control
- T/C (dose: 18.0 mg/kg/injection, schedule: Q01DX009 (ip), vehicle: saline with Tween-80): 110 % of control
- T/C (dose: 25.0 mg/kg/injection, schedule: Q04DX003 (ip), vehicle: other): 104 % of control
- T/C (dose: 35.0 mg/kg/injection, schedule: Q01DX009 (ip), vehicle: saline with Tween-80): 100 % of control and 120 % of control
- T/C (dose: 35.0 mg/kg/injection, schedule: Q04DX003 (ip), vehicle: other): 104 % of control
- T/C [2]: 90 % of control and 95 % of control
- T/C (dose: 50.0 mg/kg/injection, schedule: Q04DX003 (ip), vehicle: other): 104 % of control
- T/C [3]: 118 % of control
- T/C (dose: 75.0 mg/kg/injection, schedule: Q01DX009 (ip), vehicle: saline with Tween-80): 105 % of control
- T/C (dose: 75.0 mg/kg/injection, schedule: Q04DX003 (ip), vehicle: other): 100 % of control
- T/C [4]: 109 % of control
- T/C (dose: 150.0 mg/kg/injection, schedule: Q01DX009 (ip), vehicle: saline with Tween-80): 95 % of control
- T/C [5]: 104 % of control and 122 % of control
- T/C (dose: 300.0 mg/kg/injection, schedule: Q01DX009 (ip), vehicle: saline with Tween-80): 90 % of control

Structure (SMILES): CC1(Cl)C(=O)NC(=O)C1Cl (configuration not stated)
- T/C (dose: 3.12 mg/kg/injection, schedule: Q04DX003 (ip), vehicle: saline): 92 % of control
- T/C (dose: 6.25 mg/kg/injection, schedule: Q04DX003 (ip), vehicle: saline): 95 % of control
- T/C (dose: 12.5 mg/kg/injection, schedule: Q04DX003 (ip), vehicle: saline): 100 % of control
- T/C (dose: 25.0 mg/kg/injection, schedule: Q04DX003 (ip), vehicle: saline): 104 % of control
- T/C [3]: 104 % of control
- T/C [4]: 113 % of control

Structure (SMILES): O=[N+]([O-])c1cccc2c1CCCC2
- T/C [6]: 110 % of control
- T/C [7]: 110 % of control
- T/C [8]: 120 % of control

Structure (SMILES): FC(F)(F)c1cc(-c2ccc(C3Nc4ccccc4-n4cccc43)o2)cc(C(F)(F)F)c1 (configuration not stated)
- T/C [2]: 92 % of control
- T/C [9]: 90 % of control
- T/C [10]: 92 % of control

Structure (SMILES): CC1CN(N)CC(C)N1Cc1ccccc1 (configuration not stated)
- T/C (dose: 3.12 mg/kg/injection, schedule: Q04DX003 (ip), vehicle: water): 98 % of control
- T/C (dose: 6.25 mg/kg/injection, schedule: Q04DX003 (ip), vehicle: water): 104 % of control
- T/C (dose: 12.5 mg/kg/injection, schedule: Q04DX003 (ip), vehicle: water): 108 % of control
- T/C (dose: 25.0 mg/kg/injection, schedule: Q04DX003 (ip), vehicle: water): 113 % of control

Structure (SMILES): CNCC(=O)NC(CO)C(=O)NC1C(C(N)=O)OC(n2ccc(N)nc2=O)C(O)C1O (configuration not stated)
- T/C (dose: 0.75 mg/kg/injection, schedule: Q04DX003 (ip), vehicle: saline): 103 % of control
- T/C (dose: 1.5 mg/kg/injection, schedule: Q04DX003 (ip), vehicle: saline): 112 % of control
- T/C (dose: 3.0 mg/kg/injection, schedule: Q04DX003 (ip), vehicle: saline): 102 % of control

Structure (SMILES): CCCN(CCC)CCCCO
- T/C (dose: 22.0 mg/kg/injection, schedule: Q04DX003 (ip), vehicle: saline): 104 % of control
- T/C (dose: 33.0 mg/kg/injection, schedule: Q04DX003 (ip), vehicle: saline): 109 % of control
- T/C [3]: 104 % of control
- T/C (dose: 75.0 mg/kg/injection, schedule: Q04DX003 (ip), vehicle: saline): 104 % of control

Structure (SMILES): O=[N+]([O-])c1cc2no[n+]([O-])c2cc1N1CCN(c2cc3c(cc2[N+](=O)[O-])no[n+]3[O-])CC1
- T/C [1]: 97 % of control
- T/C (dose: 30.0 mg/kg/injection, schedule: Q01DX009 (ip), vehicle: saline with Tween-80): 98 % of control
- T/C (dose: 60.0 mg/kg/injection, schedule: Q01DX009 (ip), vehicle: saline with Tween-80): 97 % of control

Structure (SMILES): c1ccc2cc3c(cc2c1)Cn1c-3nc2ccccc21
- T/C [9]: 100 % of control
- T/C [10]: 100 % of control
- T/C (dose: 400.0 mg/kg/injection, schedule: Q01DX009 (ip), vehicle: saline with Tween-80): 95 % of control

Structure (SMILES): O=C(O)C(O)C(O)C(O)C(O)CO.[Mn] (configuration not stated)
- T/C (dose: 66.0 mg/kg/injection, schedule: Q01DX009 (ip), vehicle: saline): 116 % of control
- T/C (dose: 100.0 mg/kg/injection, schedule: Q01DX009 (ip), vehicle: saline): 116 % of control

Structure (SMILES): CNC(=S)N/N=C/C(=O)c1ccco1
- T/C (dose: 22.5 mg/kg/injection, schedule: Q01DX009 (ip), vehicle: saline with Tween-80): 104 % of control
- T/C (dose: 45.0 mg/kg/injection, schedule: Q01DX009 (ip), vehicle: saline with Tween-80): 98 % of control
- T/C (dose: 90.0 mg/kg/injection, schedule: Q01DX009 (ip), vehicle: saline with Tween-80): 105 % of control

Structure (SMILES): CC(C)Cn1cnc2c(SCc3ccc(Cl)cc3Cl)nc(N)nc21
- T/C (dose: 66.0 mg/kg/injection, schedule: Q01DX009 (ip), vehicle: gum acacia): 112 % of control
- T/C (dose: 100.0 mg/kg/injection, schedule: Q01DX009 (ip), vehicle: gum acacia): 95 % of control
- T/C (dose: 100.0 mg/kg/injection, schedule: Q04DX003 (ip), vehicle: gum acacia): 88 % of control
- T/C (dose: 150.0 mg/kg/injection, schedule: Q01DX009 (ip), vehicle: gum acacia): 100 % of control
- T/C (dose: 200.0 mg/kg/injection, schedule: Q01DX009 (ip), vehicle: gum acacia): 104 % of control
- T/C (dose: 200.0 mg/kg/injection, schedule: Q04DX003 (ip), vehicle: gum acacia): 88 % of control
- T/C (dose: 400.0 mg/kg/injection, schedule: Q01DX009 (ip), vehicle: gum acacia): 120 % of control

Structure (SMILES): O=[N+]([O-])c1ccc(NS(=O)(=O)c2cccs2)c([N+](=O)[O-])c1
- T/C [2]: 96 % of control

Structure (SMILES): O=C(O)c1ccc(S(=O)(=O)O)cc1C(=O)O
- T/C [3]: 104 % of control
- T/C [4]: 100 % of control
- T/C [5]: 91 % of control

Structure (SMILES): OCCN1CCN(CC/C=C2/c3ccccc3Sc3ccc(C(F)(F)F)cc32)CC1
- T/C (dose: 5.0 mg/kg/injection, schedule: Q01DX009 (ip), vehicle: saline): 101 % of control
- T/C (dose: 10.0 mg/kg/injection, schedule: Q01DX009 (ip), vehicle: saline): 101 % of control
- T/C (dose: 80.0 mg/kg/injection, schedule: Q04DX003 (ip), vehicle: saline): 97 % of control

Structure (SMILES): Clc1ccccc1-c1nc(-c2ccncc2)no1
- T/C [2]: 89 % of control
- T/C [9]: 93 % of control
- T/C [10]: 100 % of control

Structure (SMILES): COc1cc2c(cc1O)C(=O)CCC(C(=O)O)=C2
- T/C [11]: 106 % of control
- T/C [2]: 111 % of control
- T/C [9]: 101 % of control

Structure (SMILES): Cc1ccc[nH]c1=O
- T/C (dose: 50.0 mg/kg/injection, schedule: Q04DX003 (ip), vehicle: saline sonified): 91 % of control
- T/C (dose: 100.0 mg/kg/injection, schedule: Q04DX003 (ip), vehicle: saline sonified): 91 % of control
- T/C (dose: 200.0 mg/kg/injection, schedule: Q04DX003 (ip), vehicle: saline sonified): 100 % of control

Structure (SMILES): NCCNc1ccc(NCCN)c2c1C(=O)c1ccccc1C2=O
- T/C (dose: 6.25 mg/kg/injection, schedule: Q01DX009 (ip), vehicle: other): 214 % of control

Structure (SMILES): CCN1CCCC(Nc2nc(Nc3cc(Cl)cc(Cl)c3)nc3cc(Cl)ccc23)C1 (configuration not stated)
- T/C (dose: 37.5 mg/kg/injection, schedule: Q01DX001 (ip), vehicle: saline sonified): 120 % of control
- T/C (dose: 75.0 mg/kg/injection, schedule: Q01DX001 (ip), vehicle: saline sonified): 115 % of control
- T/C (dose: 150.0 mg/kg/injection, schedule: Q01DX001 (ip), vehicle: saline sonified): 120 % of control

Structure (SMILES): Cc1ccc(C(=O)NCCCOc2ccc(N)cc2Cl)cc1S(=O)(=O)F
- T/C [11]: 102 % of control
- T/C [2]: 111 % of control
- T/C (dose: 50.0 mg/kg/injection, schedule: Q04DX003 (ip), vehicle: saline with Tween-80): 100 % of control
- T/C [9]: 93 % of control
- T/C [6]: 92 % of control
- T/C [10]: 107 % of control
- T/C [7]: 92 % of control
- T/C [8]: 90 % of control

Structure (SMILES): CC1(C)C2CCC([CH2][Hg][Cl])C1C2 (configuration not stated)
- T/C (dose: 1.5 mg/kg/injection, schedule: Q01DX009 (ip), vehicle: Klucel (hydroxypropylcellulose) (HPC)): 90 % of control
- T/C (dose: 3.0 mg/kg/injection, schedule: Q01DX009 (ip), vehicle: Klucel (hydroxypropylcellulose) (HPC)): 100 % of control
- T/C (dose: 6.0 mg/kg/injection, schedule: Q01DX009 (ip), vehicle: Klucel (hydroxypropylcellulose) (HPC)): 90 % of control
- T/C (dose: 12.0 mg/kg/injection, schedule: Q01DX009 (ip), vehicle: Klucel (hydroxypropylcellulose) (HPC)): 104 % of control
- T/C [11]: 115 % of control

Source: PubChem BioAssay AID328 (DTP/NCI, 2004)
